Measured values taken from US12398120B2, “Substituted hydantoinamides as ADAMTS7 antagonists” (BAYER AKTIENGESELLSCHAFT, priority 2019, dated 2025).

Target: ADAMTS4 (Homo sapiens (Human), UniProt O75173)
Experiment: Selectivity assay for ADAMTS-7 modulators: ADAMTS4 (FRET substrate)
Format: biochemical
Conditions: ADAMTS4 (R&D 4307-AD) 50 nM, substrate Dabcyl-EEVKAKVQPY-Glu(Edans)-NH2 1 μM, 120 min, 32° C.
Description: 1 μl test compound solution (dissolved in DMSO, at the corresponding concentration) or pure DMSO as a control was added per well. The enzymatic reaction was initiated by addition of 25 μl of the respective concentration of the respective FRET substrate (see table 2 below) in reaction buffer.
The increase of fluorescence intensity was measured in appropriate fluorescence plate reader (e.g. TECAN Ultra) using the respective wavelengths for excitation and emission. IC50 values were calculated from percentage of inhibition of enzyme activity as a function of test compound concentration.

ADAMTS4, sequence (O75173 213-685): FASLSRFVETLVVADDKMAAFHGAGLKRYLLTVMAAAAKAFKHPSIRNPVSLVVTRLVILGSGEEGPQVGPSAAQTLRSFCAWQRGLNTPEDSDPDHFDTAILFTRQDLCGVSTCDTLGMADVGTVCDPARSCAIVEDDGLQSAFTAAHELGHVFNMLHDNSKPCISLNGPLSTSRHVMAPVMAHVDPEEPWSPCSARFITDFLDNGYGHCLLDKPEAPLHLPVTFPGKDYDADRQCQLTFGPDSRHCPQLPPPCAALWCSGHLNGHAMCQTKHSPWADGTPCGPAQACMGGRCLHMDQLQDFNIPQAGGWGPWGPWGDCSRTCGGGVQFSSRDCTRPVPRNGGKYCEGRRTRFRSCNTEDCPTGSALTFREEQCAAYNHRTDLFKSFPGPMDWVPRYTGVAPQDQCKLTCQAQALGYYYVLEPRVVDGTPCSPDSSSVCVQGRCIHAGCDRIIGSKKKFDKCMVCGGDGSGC

SMILES | IC50
Cc1scnc1C1(CNC(=O)c2ccccc2-c2ccc(C(F)(F)F)cc2)NC(=O)NC1=O (racemic) [Example 1, Rac-N-{[4-(5-Methyl-1,3-Thiazol-4-Yl)-2,5-Dioxoimidazolidin-4-Yl]Methyl}-4′-(Trifluoromethyl)[Biphenyl]-2-Carboxamide] | 6.5 µM
Cc1ncsc1C1(CNC(=O)c2ccccc2-c2ccc(C(F)(F)F)cc2)NC(=O)NC1=O (racemic) [Example 5, Rac-N-{[4-(4-Methyl-1,3-Thiazol-5-Yl)-2,5-Dioxoimidazolidin-4-Yl]Methyl}-4′-(Trifluoromethyl)[Biphenyl]-2-Carboxamide] | 12 µM
O=C1NC(=O)C(CNC(=O)c2ccccc2-c2ccc(C(F)(F)F)cc2)(c2ccccc2)N1 (racemic) [Example 12, Rac-N-[(2,5-Dioxo-4-Phenylimidazolidin-4-Yl)Methyl]-4′-(Trifluoromethyl)[Biphenyl]-2-Carboxamide] | > 50 µM
Cc1nc(C)c(C2(CNC(=O)c3ccccc3-c3ccc(C(F)(F)F)cc3)NC(=O)NC2=O)s1 (racemic) [Example 15, Rac-N-{[4-(2,4-Dimethyl-1,3-Thiazol-5-Yl)-2,5-Dioxoimidazolidin-4-Yl]Methyl}-4′-(Trifluoromethyl)[Biphenyl]-2-Carboxamide] | 7.75 µM
CCCC1(CNC(=O)c2ccccc2-c2ccc(C(F)(F)F)cc2)NC(=O)NC1=O (racemic) [Example 24, Rac-N-[(2,5-Dioxo-4-Propylimidazolidin-4-Yl)Methyl]-4′-(Trifluoromethyl)[Biphenyl]-2-Carboxamide] | > 50 µM
CC(C)(C)C1(CNC(=O)c2ccccc2-c2ccc(C(F)(F)F)cc2)NC(=O)NC1=O (racemic) [Example 25, Rac-N-[(4-Tert-Butyl-2,5-Dioxoimidazolidin-4-Yl)Methyl]-4′-(Trifluoromethyl)[Biphenyl]-2-Carboxamide] | > 50 µM
O=C1NC(=O)C(CNC(=O)c2ccccc2-c2ccc(C(F)(F)F)cc2)(C2CCOCC2)N1 (racemic) [Example 29, Rac-N-{[2,5-Dioxo-4-(Tetrahydro-2H-Pyran-4-Yl)Imidazolidin-4-Yl]Methyl}-4′-(Trifluoromethyl)[Biphenyl]-2-Carboxamide] | > 50 µM
O=C1NC(=O)C(CNC(=O)c2ccccc2-c2ccc(C(F)(F)F)cc2)(c2cnccn2)N1 (racemic) [Example 30, Rac-N-{[2,5-Dioxo-4-(Pyrazin-2-Yl)Imidazolidin-4-Yl]Methyl}-4′-(Trifluoromethyl)[Biphenyl]-2-Carboxamide] | 45 µM
Cc1nonc1C1(CNC(=O)c2ccccc2-c2ccc(C(F)(F)F)cc2)NC(=O)NC1=O (racemic) [Example 32, Rac-N-{[4-(4-Methyl-1,2,5-Oxadiazol-3-Yl)-2,5-Dioxoimidazolidin-4-Yl]Methyl}-4′-(Trifluoromethyl)[Biphenyl]-2-Carboxamide] | 35 µM
Cc1c(C2(CNC(=O)c3ccc(Cl)cc3-c3ccc(C(F)(F)F)cc3)NC(=O)NC2=O)cnn1C (racemic) [Example 33, Rac-5-Chloro-N-{[4-(1,5-Dimethyl-1H-Pyrazol-4-Yl)-2,5-Dioxoimidazolidin-4-Yl]Methyl}-4′-(Trifluoromethyl)[Biphenyl]-2-Carboxamide] | 5.2 µM
Cc1nc(C)c(C2(CNC(=O)c3ccccc3-c3ccc(C(F)(F)F)nc3)NC(=O)NC2=O)s1 (racemic) [Example 34, Rac-N-{[4-(2,4-Dimethyl-1,3-Thiazol-5-Yl)-2,5-Dioxoimidazolidin-4-Yl]Methyl}-2-[6-(Trifluoromethyl)Pyridin-3-Yl]Benzamide] | 8.9 µM
Cc1cn(C)nc1C1(CNC(=O)c2ccccc2-c2ccc(C(F)(F)F)nc2)NC(=O)NC1=O (racemic) [Example 35, Rac-N-{[4-(1,4-Dimethyl-1H-Pyrazol-3-Yl)-2,5-Dioxoimidazolidin-4-Yl]Methyl}-2-[6-(Trifluoromethyl)Pyridin-3-Yl]Benzamide] | 10 µM
O=C1NC(=O)C(CNC(=O)c2ccccc2-c2ccc(C(F)(F)F)nc2)(c2ccnn2C2CC2)N1 (racemic) [Example 40, Rac-N-{[4-(1-Cyclopropyl-1H-Pyrazol-5-Yl)-2,5-Dioxoimidazolidin-4-Yl]Methyl}-2-[6-(Trifluoromethyl)Pyridin-3-Yl]Benzamide] | 21 µM
Cc1nocc1C1(CNC(=O)c2ccccc2-c2ccc(C(F)(F)F)nc2)NC(=O)NC1=O (racemic) [Example 41, Rac-N-{[4-(3-Methyl-1,2-Oxazol-4-Yl)-2,5-Dioxoimidazolidin-4-Yl]Methyl}-2-[6-(Trifluoromethyl)Pyridin-3-Yl]Benzamide] | 30 µM
O=C1NC(=O)C(CNC(=O)c2ccccc2-c2ccc(C(F)(F)F)cc2)(c2cccnn2)N1 (racemic) [Example 42, Rac-N-{[2,5-Dioxo-4-(Pyridazin-3-Yl)Imidazolidin-4-Yl]Methyl}-4′-(Trifluoromethyl)[Biphenyl]-2-Carboxamide] | > 50 µM
Cc1ncoc1C1(CNC(=O)c2ccccc2-c2ccc(C(F)(F)F)cc2)NC(=O)NC1=O (racemic) [Example 43, Rac-N-{[4-(4-Methyl-1,3-Oxazol-5-Yl)-2,5-Dioxoimidazolidin-4-Yl]Methyl}-4′-(Trifluoromethyl)[Biphenyl]-2-Carboxamide] | 28 µM
O=C1NC(=O)C(CNC(=O)c2ccccc2-c2ccc(C(F)(F)F)nc2)(c2ccccc2)N1 (racemic) [Example 50, Rac-N-[(2,5-Dioxo-4-Phenylimidazolidin-4-Yl)Methyl]-2-[6-(Trifluoromethyl)Pyridin-3-Yl]Benzamide] | 43 µM
Cc1nn(C)cc1C1(CNC(=O)c2ccccc2-c2ccc(C(F)(F)F)nc2)NC(=O)NC1=O (racemic) [Example 55, Rac-N-{[4-(1,3-Dimethyl-1H-Pyrazol-4-Yl)-2,5-Dioxoimidazolidin-4-Yl]Methyl}-2-[6-(Trifluoromethyl)Pyridin-3-Yl]Benzamide] | 30 µM

Further lines, results first:

IC50 | SMILES
19 µM | CCn1nccc1C1(CNC(=O)c2ccccc2-c2ccc(C(F)(F)F)cc2)NC(=O)NC1=O (racemic) [Example 4, Rac-N-{[4-(1-Ethyl-1H-Pyrazol-5-Yl)-2,5-Dioxoimidazolidin-4-Yl]Methyl}-4′-(Trifluoromethyl)[Biphenyl]-2-Carboxamide]
6.2 µM | O=C1NC(=O)C(CNC(=O)c2ccccc2-c2ccc(C(F)(F)F)cc2)(c2ccnn2CC(F)(F)F)N1 (racemic) [Example 6, Rac-N-({2,5-Dioxo-4-[1-(2,2,2-Trifluoroethyl)-1H-Pyrazol-5-Yl]Imidazolidin-4-Yl}Methyl)-4′-(Trifluoromethyl)[Biphenyl]-2-Carboxamide]
17 µM | Cc1c(C2(CNC(=O)c3ccccc3-c3ccc(C(F)(F)F)cc3)NC(=O)NC2=O)cnn1C (racemic) [Example 14, Rac-N-{[4-(1,5-Dimethyl-1H-Pyrazol-4-Yl)-2,5-Dioxoimidazolidin-4-Yl]Methyl}-4′-(Trifluoromethyl)[Biphenyl]-2-Carboxamide]
> 50 µM | O=C1NC(=O)C(CNC(=O)c2ccccc2-c2ccc(C(F)(F)F)nc2)(C2CCOCC2)N1 (racemic) [Example 36, Rac-N-{[2,5-Dioxo-4-(Tetrahydro-2H-Pyran-4-Yl)Imidazolidin-4-Yl]Methyl}-2-[6-(Trifluoromethyl)Pyridin-3-Yl]Benzamide]
10 µM | Cc1cn(C)nc1C1(CNC(=O)c2ccccc2-c2ccc(C(F)(F)F)cc2)NC(=O)NC1=O (racemic) [Example 39, Rac-N-{[4-(1,4-Dimethyl-1H-Pyrazol-3-Yl)-2,5-Dioxoimidazolidin-4-Yl]Methyl}-4′-(Trifluoromethyl)[Biphenyl]-2-Carboxamide]
11 µM | Cc1conc1C1(CNC(=O)c2ccccc2-c2ccc(C(F)(F)F)cc2)NC(=O)NC1=O (racemic) [Example 44, Rac-N-{[4-(4-Methyl-1,2-Oxazol-3-Yl)-2,5-Dioxoimidazolidin-4-Yl]Methyl}-4′-(Trifluoromethyl)[Biphenyl]-2-Carboxamide]
> 50 µM | O=C1NC(=O)C(CNC(=O)c2ccccc2-c2ccc(C(F)(F)F)cc2)(C2CCCC2)N1 (racemic) [Example 48, Rac-N-[(4-Cyclopentyl-2,5-Dioxoimidazolidin-4-Yl)Methyl]-4′-(Trifluoromethyl)[Biphenyl]-2-Carboxamide]
22 µM | Cc1nscc1C1(CNC(=O)c2ccccc2-c2ccc(C(F)(F)F)nc2)NC(=O)NC1=O (racemic) [Example 49, Rac-N-{[4-(3-Methyl-1,2-Thiazol-4-Yl)-2,5-Dioxoimidazolidin-4-Yl]Methyl}-2-[6-(Trifluoromethyl)Pyridin-3-Yl]Benzamide]
19 µM | Cc1cnn(C)c1C1(CNC(=O)c2ccccc2-c2ccc(C(F)(F)F)nc2)NC(=O)NC1=O (racemic) [Example 52, Rac-N-{[4-(1,4-Dimethyl-1H-Pyrazol-5-Yl)-2,5-Dioxoimidazolidin-4-Yl]Methyl}-2-[6-(Trifluoromethyl)Pyridin-3-Yl]Benzamide]
41 µM | Cc1nsnc1C1(CNC(=O)c2ccccc2-c2ccc(C(F)(F)F)nc2)NC(=O)NC1=O (racemic) [Example 53, Rac-N-{[4-(4-Methyl-1,2,5-Thiadiazol-3-Yl)-2,5-Dioxoimidazolidin-4-Yl]Methyl}-2-[6-(Trifluoromethyl)Pyridin-3-Yl]Benzamide]
> 50 µM | CCCC1(CNC(=O)c2ccccc2-c2ccc(C(F)(F)F)nc2)NC(=O)NC1=O (racemic) [Example 57, Rac-N-[(2,5-Dioxo-4-Propylimidazolidin-4-Yl)Methyl]-2-[6-(Trifluoromethyl)Pyridin-3-Yl]Benzamide]
> 50 µM | CC(C)CCC1(CNC(=O)c2ccccc2-c2ccc(C(F)(F)F)cc2)NC(=O)NC1=O (racemic) [Example 58, Rac-N-{[4-(3-Methylbutyl)-2,5-Dioxoimidazolidin-4-Yl]Methyl}-4′-(Trifluoromethyl)[Biphenyl]-2-Carboxamide]
